Measurements taken from US10780101B2, “Amide derivatives of squalamine for the treatment of infections” (VIRBAC, priority 2016, dated 2020).
Converted amounts (≈) assume the structure as drawn. Marks after values point to notes of the source that are not given here.

Experiments:
E. coli Human ATCC 28922 = test: MIC determination, E. coli human ATCC 28922; format: cell-based; settings: Escherichia coli, ATCC28922; Gram-negative; Mueller-Hinton medium, 24 h at 37° C.
Method in brief: (§1)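 Broth microdilution in Mueller-Hinton medium; compounds from 5 mg/mL stock in DMSO/methanol (50/50), twofold serial dilutions, inoculum adjusted to OD 0.01. Plates incubated 24 h at 37 °C, humid atmosphere; OD read at 620 nm to derive MIC, duplicates.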

[1] = system: E. faecalis Human ATCC 29212; test: MIC determination, E. faecalis human ATCC 29212; format: cell-based; settings: Enterococcus faecalis, ATCC29212; Gram-positive; Mueller-Hinton medium, 24 h at 37° C.
Method in brief: as §1

[2] = system: P. aeruginosa Human ATCC 27853; test: MIC determination, P. aeruginosa human ATCC 27853; format: cell-based; settings: Pseudomonas aeruginosa, ATCC27853; Gram-negative; Mueller-Hinton medium, 24 h at 37° C.
Method in brief: as §1

P. aeruginosa (1051575) [3] = test: Potentiation of chloramphenicol activity (combination MIC); format: cell-based, Pseudomonas aeruginosa; settings: concentration of compound required to restore antibiotic activity
P. aeruginosa (1051575) [4] = test: Potentiation of erythromycin activity (combination MIC); format: cell-based, Pseudomonas aeruginosa; settings: erythromycin 2 μg/mL; concentration of compound required to restore antibiotic activity
Method in brief: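 Broth microdilution with wells seeded at OD 0.01 (about 5×10^6 bacteria/well). The test compound was serially diluted against each antibiotic held at a final 2 μg/mL. After 24 h at 37 °C in humid air, live bacteria were stained pink with nitro tetrazolium iodide; the value is the compound concentration restoring antibiotic activity.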

[5] = system: S. aureus Human ATCC 25923; test: MIC determination, S. aureus human ATCC 25923; format: cell-based; settings: Staphylococcus aureus, ATCC25923; Gram-positive; Mueller-Hinton medium, 24 h at 37° C.
Method in brief: as §1

C. albicans = test: Antifungal activity, cascade microdilution; format: cell-based; settings: Candida albicans, 24 h, read-out: IC50 (μg/mL) C. albicans
S. aureus Animal (340) = test: MIC determination, S. aureus animal (340); format: cell-based; settings: Staphylococcus aureus; Gram-positive; Mueller-Hinton medium, 24 h at 37° C.
Method in brief: as §1

[6] = system: P. aeruginosa Animal (1051575); test: MIC determination, P. aeruginosa animal (1051575); format: cell-based; settings: Pseudomonas aeruginosa; Gram-negative; Mueller-Hinton medium, 24 h at 37° C.
Method in brief: as §1

P. aeruginosa (1051575) [7] = test: Potentiation of doxycycline activity (combination MIC); format: cell-based, Pseudomonas aeruginosa; settings: for MIC - P. aeruginosa (1051575): content of compound of formula (I) to restore the doxycycline activity (at 2 μg/mL): in presence of doxycycline 2 μg/mL, 24 hours at 37° C.; for synergism when administered with doxycycline: doxycycline at 2 μg/mL

| Compound | MIC (E. coli Human ATCC 28922) [µg/mL] | MIC [1] [µg/mL] | MIC [2] [µg/mL] | MIC P. aeruginosa (1051575) compound + chloramphenicol (P. aeruginosa (1051575) [3]; chloramphenicol 4 μg/mL) [µg/mL] | MIC P. aeruginosa (1051575) compound + erythromycin (P. aeruginosa (1051575) [4]) | MIC [5] [µg/mL] | IC50 (C. albicans) [µg/mL] | MIC (S. aureus Animal (340)) [µg/mL] | MIC [6] [µg/mL] | MIC - P. aeruginosa (1051575): content of compound of formula (I) to restore the doxycycline activity (at 2 μg/mL) (P. aeruginosa (1051575) [7]) [µg/mL] | MIC P. aeruginosa (1051575) compound + chloramphenicol (P. aeruginosa (1051575) [3]; chloramphenicol 2 μg/mL) [µg/mL] | synergism when administered with doxycycline (P. aeruginosa (1051575) [7]) |
| --- | --- | --- | --- | --- | --- | --- | --- | --- | --- | --- | --- | --- |
| CC(C)NC(=O)CC[C@@H](C)[C@H]1CCC2C3C(CC[C@@]21C)[C@@]1(C)CC[C@H](NCCCNCCCCNCCCN)CC1C[C@@H]3O (stereo partly drawn) [Compound (35), 3β-spermino-N-isopropylursodeoxycholamide] | 64 (≈ 104 µM) | 64 (≈ 104 µM) | 32 (≈ 51.8 µM) | 2 | 32 µg/mL | 16 (≈ 25.9 µM) | 1 (≈ 1.62 µM) | 16 (≈ 25.9 µM) | 64 (≈ 104 µM) | 2 | – | – |
| CC(C)NC(=O)CC[C@@H](C)[C@H]1CCC2C3C(CC[C@@]21C)[C@@]1(C)CC[C@H](NCCCN(C)CCCN)CC1C[C@H]3O (stereo partly drawn) [(27), 3β-(bis(3-aminopropyl)methylamine)-N-isopropylchenodeoxycholamide] | 16 (≈ 28.5 µM) | 16 (≈ 28.5 µM) | 32 (≈ 57 µM) | 1 | 28 µg/mL | 8 (≈ 14.3 µM) | 2 (≈ 3.57 µM) | 8 (≈ 14.3 µM) | 128 (≈ 228 µM) | 2 | 4 | – |
| CC(C)NC(=O)CC[C@@H](C)[C@H]1CCC2C3C(CC[C@@]21C)[C@@]1(C)CC[C@H](NCCCNCCCNCCCN)CC1C[C@H]3O (stereo partly drawn) [(7), 3β-norspermino-N-isopropylchenodeoxycholamide] | 15 (≈ 24.8 µM) | 4 (≈ 6.62 µM) | 30 (≈ 49.7 µM) | 2 | 15 µg/mL | 4 (≈ 6.62 µM) | – | 2 (≈ 3.31 µM) | 15 (≈ 24.8 µM) | 1 | – | – |
| CC(C)NC(=O)CC[C@@H](C)[C@H]1CCC2C3C(CC[C@@]21C)[C@@]1(C)CC[C@H](NCCCNCCCN)CC1C[C@@H]3O (stereo partly drawn) [(15), 3β-norspermidino-N-isopropylursodeoxycholamide] | 56 (≈ 102 µM) | 112 (≈ 205 µM) | 56 (≈ 102 µM) | 2 | 55 µg/mL | 28 (≈ 51.2 µM) | 14 (≈ 25.6 µM) | 56 (≈ 102 µM) | 112 (≈ 205 µM) | 1 | 7 | – |
| CC(C)NC(=O)CC[C@@H](C)[C@H]1CCC2C3C(CC[C@@]21C)[C@@]1(C)CC[C@H](NCCCNCCCN)CC1C[C@H]3O (stereo partly drawn) [(8), 3β-norspermidino-N-isopropylchenodeoxycholamide] | 14 (≈ 25.6 µM) | 8 (≈ 14.6 µM) | 54 (≈ 98.7 µM) | 2 | 27 µg/mL | 6 (≈ 11 µM) | 1 (≈ 1.83 µM) | 3 (≈ 5.49 µM) | 27 (≈ 49.4 µM) | 2 | – | – |
| CC(C)NC(=O)CC[C@@H](C)[C@H]1CCC2C3CCC4C[C@@H](NCCCNCCCN)CC[C@]4(C)C3C[C@H](O)[C@@]21C (stereo partly drawn) [Compound (2), 3β-norspermidino-N-isopropyldeoxycholamide] | 14 (≈ 25.6 µM) | 14 (≈ 25.6 µM) | 28 (≈ 51.2 µM) | 0.9 | 3* μg/mL | 4 (≈ 7.31 µM) | – | 2 (≈ 3.66 µM) | 14 (≈ 25.6 µM) | 0.9 | 0.9 | noteworthy synergism |
| CC(C)NC(=O)CC[C@@H](C)[C@H]1CCC2C3CCC4C[C@@H](NCCCN(C)CCCN)CC[C@]4(C)C3C[C@H](O)[C@@]21C (some centres unmarked) [(25)] | 14 (≈ 25 µM) | 14 (≈ 25 µM) | 28 (≈ 49.9 µM) | 2 | 28 µg/mL | 7 (≈ 12.5 µM) | – | 14 (≈ 25 µM) | 28 (≈ 49.9 µM) | 2 | – | noteworthy synergism |
| CC(C)NC(=O)CC[C@@H](C)[C@H]1CCC2C3C(C[C@H](O)[C@@]21C)[C@@]1(C)CC[C@H](NCCCNCCCN)CC1C[C@H]3O (stereo partly drawn) [(5), 3β-norspermidino-N-isopropylcholamide] | 16 (≈ 28.4 µM) | 16 (≈ 28.4 µM) | 64 (≈ 114 µM) | 2 | 32* μg/mL | 8 (≈ 14.2 µM) | 4 (≈ 7.11 µM) | 16 (≈ 28.4 µM) | 64 (≈ 114 µM) | 1 | 4 | – |
